Laboratory results: paper PMC11378297, “Discovery and Profiling of New Multimodal Phenylglycinamide Derivatives as Potent Antiseizure and Antinociceptive Drug Candidates” (ACS Chemical Neuroscience, 2024)
Read-outs that look alike come from different tables or passages of the source. Marks after values point to notes of the source that are not given here.

Experiments:
[1] = system: Cav1.2 (dihydropyridine site); experiment: Cav1.2 (dihydropyridine site, antagonist radioligand) binding; conditions: 100 µM, rat cerebral cortex
Procedure: (§1) Further in vitro functional studies confirmed TRPV1 antagonist activity for (R)-31–(R)-33.
(§2) Table S2. In vitro TRPV1 channel antagonist activity for compounds 3–12 (series A), 21–24 (series B) in […]
(§3) Cmpd % Inhibition of control Cmpd % Inhibition of control agonist responsea agonist responsea
(§4) *Source: human recombinant CHO cells. a Results showing activity higher than 50% are considered to represent significant […]
(§5) around the control level. Assays were performed commercially in Eurofins Laboratories (Poitiers, France).
(§6) Binding studies Source % Inhibition of control specific binding […]
(§7) Na+ channel (site 2) Rat cerebral 94.9 (100)
(§8) Cav1.2 (dihydropyridine Rat cerebral 58.0 (100) site, antagonist radioligand) cortex
(§9) Functional studies Source % Inhibition of control specific binding […]
(§10) (antagonist effect) CHO cells
(§11) (agonist effect) CHO cells
(§12) Table S9. Radioligand binding and functional assays.
(§13) Cav1.2 (L-type) (h) calcium ion channel cell-based antagonist calcium flux assay TRPV1 (VR1) (h) (antagonist effect)
(§14) TRPA1 (h) transient potential ion channel cell based antagonist calcium flux assay TRPM8 (h) (antagonist effect)
(§15) Cav1.2 (L-type) (dihydropyridine site, antagonist radioligand) […]
(§16) Assays were performed commercially in Eurofins Laboratories (Poitiers, France) or Eurofins Panlabs Discovery Services Taiwan, Ltd. (New Taipei City, Taiwan).

Na+ channel (site 2) = Na+ channel (site 2) radioligand binding; conditions: 100 µM, rat cerebral cortex
Procedure: The current body of literature consistently reports that both sodium (Navx) and Cav1.2 calcium ion channels can be involved in the pathogenesis of epilepsy[67]−[69] and neuropathic pain.[70]−[73] […] Therefore, we performed binding and functional studies toward sodium (site 2) and calcium Cav1.2 channels at concentrations of 10 μM for (R)-31−(R)-33.
(§17) Using previously described testing methodologies, binding/functional tests were conducted on a commercial basis at Eurofins Laboratories (Poitiers, France) and Eurofins Panlabs Discovery Services Taiwan, Ltd. (New Taipei City, Taiwan); see Table S9 for more information.
(§18) Table S9. Radioligand binding and functional assays. […]
(§19) Assays were performed commercially in Eurofins Laboratories (Poitiers, France) or Eurofins Panlabs Discovery Services
(§20) Taiwan, Ltd. (New Taipei City, Taiwan).

CB1 (h) = target: T1, CB1 (h) (Homo sapiens, UniProt P21554); experiment: CB1 (h) (agonist effect); type: cell-based; conditions: human recombinant CHO cells, read-out: % Inhibition of control specific binding (functional study, agonist effect)
T1 construct: host or cells: CHO cells
Procedure: as §1, §2, §3, §4, §5, §6, §7, §8, §9, §10, §11, §12, §13, §14, §15, §16

[2] = system: maximal electroshock (MES) seizures, mice; conditions: i.p., cited from earlier work
TRPV1 (VR1) (h) = target: T2, TRPV1 (VR1) (h) (Homo sapiens, UniProt Q8NER1); experiment: TRPV1 (VR1) (h) (antagonist effect); type: cell-based; conditions: 100 µM, human recombinant CHO cells; read-out: % Inhibition of control specific binding (functional study, antagonist effect)
T2 construct: host or cells: CHO cells
Procedure: as §1, §17, §18
TRPV1 (VR1) (h) (antagonist effect) […]
as §19, §20

[3] = system: 6 Hz (32 mA) seizures, mice; conditions: i.p., cited from earlier work
[4] = system: 6 Hz (44 mA) seizures, mice; conditions: i.p., cited from earlier work
[5] = system: mice (motor coordination); conditions: racemates, chimney test, i.p.; cited from earlier work
[6] = system: mice (motor coordination); conditions: reference ASMs, rotarod test, i.p.; cited from earlier work
[7] = system: PTZ-induced kindling, mice; experiment: PTZ-induced kindling model; type: in vivo, mouse; conditions: 150 mg/kg i.p. repeatedly, positive control
Procedure: We investigated the impact of lead compound (R)-32 on PTZ-induced kindling in mice to further assess its antiseizure potential (Figure 3). […] The PTZ-induced kindling model is widely recognized as a useful method to induce chronic increase in susceptibility to epileptic seizures.
Figure 3 Effect of repeated treatment with (R)-32 in PTZ-induced kindling model in mice. […] Data are presented as means of seizure severity (n = 10–15 animals). Statistical significance was evaluated by a mixed effects model for repeated measures followed by Tukey’s post hoc test: **p < 0.01, […] vs control group (GraphPad Prism 8.4.3).
The procedure was performed as described in detail in our previous studies.[88],[89] […] Seizures were induced three times a week by i.p. administration of PTZ at a subconvulsive dose of 40 mg/kg. […] The seizure severity was scored using the modified Racine’s scale. […] The locomotor activity test, the elevated plus maze test, and the FST were performed 24 h after the last PTZ injection, according to the methods described in detail elsewhere. After completion of behavioral tests, animals were sacrificed. Hippocampi and cortices were dissected from the brains, frozen, and stored at −80 °C until assay. Following each PTZ injection, the mean seizure severity scores were determined for each experimental group. A mixed effects model for repeated measurements was used for analysis, along with Tukey’s post hoc test. The percentage of fully kindled mice was compared using Fisher’s exact probability test.

[8] = system: formalin-induced pain, mice; design: method as in PMID 28934547; conditions: previously tested in the authors' laboratory; cited from earlier work
[9] = system: glutamate and GABA concentrations in brain; experiment: glutamate and GABA concentrations in hippocampus and cortex of PTZ-kindled mice; type: in vivo, mouse
Text: After behavioral tests (FST, PTZ-induced kindling), we determined the changes in glutamate and GABA concentrations in the hippocampus and cortex. Since exposure to the FST can evoke various neurochemical alterations, two additional groups were employed in this experiment, i.e., control nonkindled mice that were exposed to the FST and naïve mice. No marked differences in both glutamate and GABA concentrations in the hippocampus were observed (Figure 5A). […] We found a significant increase in glutamate concentration in the cortex of mice subjected to the FST (p < 0.05 vs naive mice). […] Given that seizures are typically accompanied by elevated extracellular glutamate levels (an excitatory neurotransmitter), a decreased glutamate concentration in the cortex of kindled animals may appear to be an unexpected outcome. It should be highlighted, however, that the concentrations of glutamate and GABA in tissue homogenates rather than dialysate were measured in brain samples acquired 24 h following the previous PTZ dose, which may have an impact on the outcomes. On the other hand, decreased glutamate levels could be caused by the up-regulation of glutamate transporters, as the expression of glutamate transporters can increase following seizures.[48] For example, an increased expression of hippocampal GLT-1 was observed 24 h after kainic acid-induced status epilepticus in mice and PTZ-induced kindling in rats.[49] Moreover, similar to our findings, Szyndler et al.([50]) found decreased glutamate concentrations, with no changes in GABA concentrations, in homogenates of the hippocampus, striatum, and prefrontal cortex of PTZ-kindled rats.
Figure 5 Changes in glutamate and GABA concentrations in the hippocampus (A) and cortex (B). Data are shown as means + SD (n = 9–14 animals). Statistical significance was evaluated by one-way ANOVA followed by Tukey’s post hoc test: *p < 0.05, **p < 0.01, ***p < 0.001 (GraphPad Prism 8.4.3).
GABA and glutamate concentrations were determined using liquid chromatography tandem mass spectrometry (LC-MS/MS) in the mouse prefrontal cortex and hippocampus. Toronto Research Chemicals Inc. was the source of the standards for both analytes (Toronto, ON, Canada). GABA and glutamate stock standard solutions were made in methanol and deionized water, respectively, and kept cold at 4 °C. The stock solutions were suitably diluted to create a range of solution combinations with the appropriate concentrations. Prior to analysis, a hand-held pestle and glass tube homogenizer (Potter–Elvehjem PTFE pestle and glass tube, Sigma-Aldrich, St. Louis, MO, USA) were used to homogenize mouse brains in distilled water at a ratio of 50 μL/mg. Following a 10 min centrifugation at 8000g for 10 min at 4 °C, homogenates were diluted 10 times with 0.1% formic acid in MeCN from the supernatant. Samples (10 μL) were deproteinized with 80 μL of 0.1% formic acid in MeCN by shaking for 10 min (IKA Vibrax VXR, IKA Werke GmbH & Co. KG, Staufen im Breisgau, Germany) and centrifuged for 5 min at the speed of 8000g (Eppendorf miniSpin centrifuge) after isotope-labeled GABA-d6 and glutamate-d5 (Toronto Research Chemicals Inc., Toronto, ON, Canada) were added as internal standards (10 μL at the concentration of 500 ng/mL). The autosampler vials were filled with the acquired supernatants. […]

[10] = system: mature-BDNF (mBDNF) expression; experiment: mBDNF expression in hippocampus and cortex of PTZ-kindled mice (Western blot); type: in vivo, mouse; conditions: VPA repeated (150 mg/kg), p < 0.01 vs PTZ kindling control
Text: However, there are also few reports showing opposite findings.[51],[52] […] No changes in the expression of the nerve growth factor (NGF) were observed (Figure 6D–F).
Figure 6 Changes in mature-BDNF (mBDNF) expression in hippocampus (A) and cortex (C) and in proNGF expression in hippocampus (D) and cortex (F) with representative immunoblots, together with total protein amount visualized by the stain-free technique (B,E). Data are shown as means of relative expressions + SD (n = 8). Statistical significance was evaluated by one-way ANOVA followed by Tukey’s post hoc test: **p < 0.01 (GraphPad Prism 8.4.3).
The Western Blot method was used to assess the expression of proNGF and mBDNF in the mouse brain and hippocampal tissues. Using a bead homogenizer (Bead Ruptor Elite, Omni International, USA), the cortical and hippocampal regions of the mouse brain were weighted and homogenized at a ratio of 9 μL/mg in 2% SDS supplemented with a cocktail of protease (Thermo Scientific, Walthman, MA, USA) and phosphatase inhibitors (Sigma-Aldrich, St. Louis, MO, USA). Samples were then centrifuged at 10,000g for 10 min at 4 °C after being denatured for 10 min at 95 °C. […] One-way ANOVA with Tukey’s post hoc test was utilized to examine changes in the relative expression of the proteins that were evaluated.

[11] = system: capsaicin-induced pain, mice; design: method as in PMID 28934547; conditions: 200 mg/kg; cited from earlier work
[12] = hepatotoxicity, HepG2 cell viability; type: cell-based, human; conditions: human, HepG2 hepatoma cells; 1 μM, 72 h of incubation (Figure 11)
Procedure: The hepatotoxicity potential was assessed with the HepG2 cell line and the reference cytostatic drug doxorubicin.
The results are presented as means + SD. Statistical significance was evaluated by one-way ANOVA, followed by Bonferroni’s multiple comparison post hoc test (Graph Pad Prism 8.0.1 software, San Diego, CA, USA): *p < 0.05, ***p < 0.001, ****p < 0.0001 vs negative control (DMSO 1% in growth media).

[13] = reference ASMs, pretreatment time 0.5 h (LCS, VPA) or 1.0 h (LEV, CBD), literature or own experiments
[14] = racemates, pretreatment time 0.5 h
[15] = reference ASMs, pretreatment time 0.5 h (LCS, VPA) or 1.0 h (LEV, CBD)

T1 sequence (P21554 whole entry): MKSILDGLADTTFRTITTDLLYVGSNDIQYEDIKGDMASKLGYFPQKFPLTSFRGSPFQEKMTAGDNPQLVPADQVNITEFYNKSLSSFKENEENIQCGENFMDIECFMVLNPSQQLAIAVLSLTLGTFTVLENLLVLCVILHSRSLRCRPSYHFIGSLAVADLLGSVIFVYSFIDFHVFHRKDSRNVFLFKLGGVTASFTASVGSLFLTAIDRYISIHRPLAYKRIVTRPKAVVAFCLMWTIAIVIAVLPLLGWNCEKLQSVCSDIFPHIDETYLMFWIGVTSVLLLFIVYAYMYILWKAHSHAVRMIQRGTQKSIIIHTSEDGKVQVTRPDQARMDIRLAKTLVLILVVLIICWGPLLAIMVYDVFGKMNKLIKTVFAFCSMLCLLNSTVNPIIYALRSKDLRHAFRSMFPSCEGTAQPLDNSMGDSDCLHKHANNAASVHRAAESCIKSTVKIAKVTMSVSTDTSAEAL
T2 sequence (Q8NER1 whole entry): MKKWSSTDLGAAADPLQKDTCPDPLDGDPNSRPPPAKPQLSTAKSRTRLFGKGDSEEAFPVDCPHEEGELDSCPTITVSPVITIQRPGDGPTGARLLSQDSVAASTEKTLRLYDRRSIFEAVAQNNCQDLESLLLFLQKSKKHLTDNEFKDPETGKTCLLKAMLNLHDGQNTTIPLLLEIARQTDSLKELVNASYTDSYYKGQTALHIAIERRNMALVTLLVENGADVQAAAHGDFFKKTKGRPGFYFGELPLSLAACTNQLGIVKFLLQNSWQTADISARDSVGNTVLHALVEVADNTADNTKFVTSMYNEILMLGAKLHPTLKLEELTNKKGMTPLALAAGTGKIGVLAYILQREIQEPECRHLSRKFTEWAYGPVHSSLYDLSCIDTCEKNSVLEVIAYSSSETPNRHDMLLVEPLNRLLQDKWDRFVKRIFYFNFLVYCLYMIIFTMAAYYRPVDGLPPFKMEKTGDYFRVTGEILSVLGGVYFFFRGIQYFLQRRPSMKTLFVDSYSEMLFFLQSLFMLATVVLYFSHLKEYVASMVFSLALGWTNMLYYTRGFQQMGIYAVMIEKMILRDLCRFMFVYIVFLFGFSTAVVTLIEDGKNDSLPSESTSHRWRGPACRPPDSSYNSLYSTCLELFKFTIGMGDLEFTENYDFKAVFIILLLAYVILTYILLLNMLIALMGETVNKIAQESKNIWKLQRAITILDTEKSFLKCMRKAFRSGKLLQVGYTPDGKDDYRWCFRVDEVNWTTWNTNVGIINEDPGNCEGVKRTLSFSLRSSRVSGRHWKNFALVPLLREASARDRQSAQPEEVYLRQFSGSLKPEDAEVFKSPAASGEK

C=C(C)[C@@H]1CCC(C)=C[C@H]1c1c(O)cc(CCCCC)cc1O [CBD, cannabidiol]
% inhibition of control specific binding [1]: 58.0%
% inhibition of control specific binding (Na+ channel (site 2)): 94.9%
inhibition at 100 µM (CB1 (h)): 103%
ED50 MES [2, 13]: 80.0 mg/kg
inhibition at 100 µM (TRPV1 (VR1) (h)): 47.8%

CC(=O)NC(C(=O)N1CCN(c2cccc(C(F)(F)F)c2)CC1)c1ccccc1 (centres unmarked) [KJ-5]
ED50 6 Hz (32 mA) [3, 14]: 29.9 mg/kg
ED50 6 Hz (44 mA) [4, 14]: 68.0 mg/kg
TD50 [5]: 179.7 ^b mg/kg
ED50 MES [2, 14]: 89.7 mg/kg

COC[C@@H](NC(C)=O)C(=O)NCc1ccccc1 [LCS, lacosamide]
ED50 6 Hz (32 mA) [3, 15]: 5.3 mg/kg
ED50 6 Hz (44 mA) [4, 15]: 6.9 mg/kg
ED50 MES [2, 13]: 9.2 mg/kg

CC[C@@H](C(N)=O)N1CCCC1=O [LEV, levetiracetam]
TD50 [6]: >500 ^c mg/kg
ED50 6 Hz (44 mA) [4, 15]: 204.0 mg/kg
ED50 MES [2, 13]: >500 mg/kg

CCCC(CCC)C(=O)O [VPA, valproic acid, reference compound]
effect on kindling progression [7]: suppressed kindling progression
ED50 6 Hz (32 mA) [3, 15]: 130.6 mg/kg
ED50 in the late phase of the formalin test [8]: 132.9 mg/kg
GABA concentration in the cortex ([9]; 150 mg/kg, p < 0.05 vs PTZ-kindled control group): significantly decreased
glutamate concentration in the hippocampus ([9]; vs nonkindled FST control group): slight decrease
mBDNF protein expression in the hippocampus (PTZ kindling-induced overexpression) [10]: reversed the overexpression
activity in capsaicin-induced pain [11]: active only at the highest administered dose

COc1cccc2c1C(=O)c1c(O)c3c(c(O)c1C2=O)C[C@@](O)(C(=O)CO)C[C@@H]3O[C@H]1C[C@H](N)[C@H](O)[C@H](C)O1 [doxorubicin, reference compound]
viability at 72 h, 1 µM [12]: ~20%
